Data from patent US9416132B2, “Substituted imidazo[1,2-b]pyridazines as protein kinase inhibitors” (Tolero Pharmaceuticals, Inc., priority 2011, dated 2016).
pEC50, pIC50: −log10 of the molar value. Read-outs that look alike come from different tables or passages of the source.

Tests used:
PIM-1 [1] = target: T1, PIM-1 (Homo sapiens (Human), UniProt P11309); test: Pim-1 kinase inhibition assay (Promega Kinase-Glo); assay type: biochemical; conditions: read-out: Compound IC50 on Pim1
From the text: One illustrative manner in which Pim-1 kinase activity can be determined is by quantifying the amount of ATP remaining in solution after an in vitro Pim-1 kinase reaction. The Kinase-Glo Assay Kit (Promega, Inc., Madison, Wis.) allows this. The amount of ATP remaining in the solution after the kinase reaction serves as a substrate for the luciferase to catalyze luciferin to oxyluciferin plus one photon of light. Thus, the luminescent signal read by the Luminoskan Ascent Instrument (Thermo Electron Corp., Milford, Mass.) correlates with the amount of ATP present after the kinase reaction and inversely correlates with the amount of kinase activity. […] These assays are set up in duplicate 50 ul volumes in white, flat bottom 96 well plates. […] This solution is incubated at 30 degrees Celsius at 360 rpm for two hours. Following the incubation, 50 ul of Kinase-Glo reagent is added to each well, including all positive and negative control wells, and incubated at room temperature for 15 minutes. […] The IC50 values can then be calculated for each inhibitor tested.

PIM-1 [2] = target: T1, PIM-1; test: PIM-1/BAD over-expression phospho-BAD (Ser112) AlphaScreen assay in HEK-293 cells; assay type: cell-based; conditions: PIM-1/BAD over-expression in HEK-293 cells; read-out: average EC50, PIM-1 specific cellular activity (BAD Ser112 phosphorylation)
Method: HEK-293 cells (1×10^4) were seeded in a 96-well plate using EMEM media with serum and incubated overnight at 37° C. in 5% CO2. […] Cells were serum starved for an additional 18 hours, then treated 2 hours with various concentrations of SGI-9481 or 0.5% carrier DMSO control. Media was removed and cells were lysed using 25 μl 1× lysis buffer from the AlphaScreen SureFire Phospho-BAD (Ser112) kit from Perkin Elmer. Lysates (4 μl) were transferred to a 384-well proxiplate, and 5 μl of acceptor mix was added to each well and incubated for 2 hours at room temperature. Donor mix (2 μl) was added to each well, and samples incubated for 2 hours at room temperature and reactions measured on an Envision plate reader (Perkin Elmer) with AlphaScreen capabilities. Non-specific phosphorylation of BAD was subtracted using values from PIM-1 KD transfected cells, and the remaining wells were normalized to the DMSO control wells. EC50 values were calculated using GraphPad Prism software (La Jolla, Calif.).

22RV1/PIM-1 xenografts = test: 22RV1/PIM-1 over-expression mouse tumor xenograft; assay type: in vivo
From the text: (§1) Male and female Nu/Nu mice were purchased from Harlan Sprague Dawley (Indianapolis, Ind.). Female Nu/Nu mice were used for all xenograft evaluations with the exception of the PC-3 xenografts where male Nu/Nu mice were used. Cell lines were expanded in vitro in complete media, and if adherent were harvested by trypsin-EDTA, centrifuged and resuspended in PBS 1:1 with Matrigel (BD Bioscienes). Cells were inoculated subcutaneously in the right hind flank of mice. When tumors reached 100-200 mm^3 by caliper measurement, mice were randomized and dosing of SGI-9481 or vehicle control began and continued every day for 5 days (QD×5) with 2 days off for 18-21 days. Tumor volumes and body weights were determined twice a week, and tumor weights were measured at the completion of the translational xenograft studies.
(§2) The prostate cancer cell line 22RV1 engineered to over-express PIM-1 as previously described (Mumenthaler, et al, Mol. Cancer Ther., 2009, 8(10)2882-93) was evaluated in vivo. A second model engineered to over-express PIM-2 was established using the NIH-3T3 mouse fibroblast cell line.

NIH-3T3/PIM-2 xenografts = test: NIH-3T3/PIM-2 over-expression mouse tumor xenograft; assay type: in vivo
From the text: as §1, §2

UM-UC-3 xenograft tumors = test: UM-UC-3 established mouse xenograft tumors; assay type: in vivo
From the text: as §1, with “When tumors reached 100-200 mm^3 by caliper measurement, mice were randomized and dosing of SGI-9481 or vehicle control began and continued every day for 5 days (QD×5) with 2 days off for 18-21 days.” left out

PC-3 xenograft tumors = test: PC-3 established mouse xenograft tumors; assay type: in vivo
From the text: as §1, with “When tumors reached 100-200 mm^3 by caliper measurement, mice were randomized and dosing of SGI-9481 or vehicle control began and continued every day for 5 days (QD×5) with 2 days off for 18-21 days.” left out

[3] = Pharmacokinetic study in PC-3 tumor-burdened mice; assay type: in vivo, mouse; conditions: 200 mg/kg
[4] = system: phosphatidyl inositol-3-kinase (PI3K) family; test: Selectivity study; assay type: biochemical
[5] = system: ML-2 cells (wild-type FLT3) xenografts; test: ML-2 mouse xenograft study; assay type: in vivo; conditions: ML-2 (wild-type FLT3) xenografts
From the text: as §1

[6] = system: MV-4-11 (FLT3-ITD) xenografts; test: MV-4-11 mouse xenograft study; assay type: in vivo
From the text: as §1

hERG = hERG (Homo sapiens (Human), UniProt Q12809); test: hERG Fast Patch assay (WuXiApptec); assay type: cell-based
Sequence of hERG (Q12809 whole entry): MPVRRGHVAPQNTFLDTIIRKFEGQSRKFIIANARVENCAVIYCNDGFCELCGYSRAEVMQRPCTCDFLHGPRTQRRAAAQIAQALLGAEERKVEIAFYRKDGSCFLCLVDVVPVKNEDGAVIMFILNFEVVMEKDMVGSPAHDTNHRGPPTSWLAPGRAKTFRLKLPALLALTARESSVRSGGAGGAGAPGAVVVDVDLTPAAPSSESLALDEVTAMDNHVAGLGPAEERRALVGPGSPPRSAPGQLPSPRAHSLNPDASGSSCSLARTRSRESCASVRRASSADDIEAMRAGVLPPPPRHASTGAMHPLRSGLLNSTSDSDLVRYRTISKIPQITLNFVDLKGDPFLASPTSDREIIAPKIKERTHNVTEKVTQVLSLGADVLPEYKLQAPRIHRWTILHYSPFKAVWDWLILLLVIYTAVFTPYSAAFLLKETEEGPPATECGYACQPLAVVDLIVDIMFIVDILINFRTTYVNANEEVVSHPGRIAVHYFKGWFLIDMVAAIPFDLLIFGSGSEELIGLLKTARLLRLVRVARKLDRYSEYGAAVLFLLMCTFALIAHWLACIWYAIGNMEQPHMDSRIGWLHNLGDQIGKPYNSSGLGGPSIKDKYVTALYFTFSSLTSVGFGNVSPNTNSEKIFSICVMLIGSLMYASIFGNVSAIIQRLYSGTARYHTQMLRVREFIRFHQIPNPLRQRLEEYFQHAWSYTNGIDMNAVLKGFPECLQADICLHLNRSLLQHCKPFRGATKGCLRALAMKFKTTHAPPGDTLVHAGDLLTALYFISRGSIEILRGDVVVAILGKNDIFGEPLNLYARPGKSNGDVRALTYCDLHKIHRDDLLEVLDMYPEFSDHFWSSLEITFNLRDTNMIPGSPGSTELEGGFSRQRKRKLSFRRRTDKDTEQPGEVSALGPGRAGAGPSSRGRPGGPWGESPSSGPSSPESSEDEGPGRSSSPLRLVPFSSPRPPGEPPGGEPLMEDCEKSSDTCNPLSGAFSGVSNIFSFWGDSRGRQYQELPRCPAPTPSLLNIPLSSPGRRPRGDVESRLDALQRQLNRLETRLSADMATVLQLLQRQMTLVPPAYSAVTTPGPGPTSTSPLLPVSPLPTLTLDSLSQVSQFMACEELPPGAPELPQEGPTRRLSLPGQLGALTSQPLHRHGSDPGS

[7] = 125 mg/kg, less than with 200 mg/kg

T1 sequence (P11309 whole entry): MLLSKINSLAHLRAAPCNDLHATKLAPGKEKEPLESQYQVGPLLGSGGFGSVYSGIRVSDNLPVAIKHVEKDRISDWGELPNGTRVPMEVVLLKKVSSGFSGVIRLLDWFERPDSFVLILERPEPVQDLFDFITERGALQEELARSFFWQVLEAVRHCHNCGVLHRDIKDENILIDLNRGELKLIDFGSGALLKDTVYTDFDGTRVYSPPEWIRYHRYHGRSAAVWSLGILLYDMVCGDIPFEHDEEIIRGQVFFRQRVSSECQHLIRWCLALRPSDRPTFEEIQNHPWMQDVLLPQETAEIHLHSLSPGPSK

CO[C@H]1CC[C@H](Nc2ccc3nnc(-c4cccc(OC(F)(F)F)c4)n3c2)CC1 [Compound 8-99, 4-(trans-Methoxycyclohexyl)-3-(3-(trifluoromethoxy)phenyl)-[1,2,4]triazolo[4,3-a]pyridin-6-amine]
pIC50 (PIM-1 [1]; Table V): 7.08

CO[C@H]1CC[C@H](Nc2ccc3nnc(-c4cccc(Cl)c4)n3c2)CC1 [Compound 8-113, 4-(trans-Methoxycyclohexyl)-3-(3-chlorophenyl)-[1,2,4]triazolo[4,3-a]pyridin-6-amine]
pIC50 (PIM-1 [1]; Table V): 6.14

CO[C@H]1CC[C@H](Nc2ccc3ncc(-c4cccc(C(F)(F)F)c4)n3n2)CC1 [Compound 8-32, 4-(trans-Methoxycyclohexyl)-3-(3-(trifluoromethyl)phenyl)imidazo[1,2-b]pyridazin-6-amine]
pIC50 (PIM-1 [1]; Table IV): 6.94

N[C@H]1CC[C@H](Nc2ccc3ncc(-c4cccc(OC(F)(F)F)c4)n3n2)CC1 [Compound 8-8, (3-(3-(Trifluoromethoxy)phenyl)imidazo[1,2-b]pyridazin-6-yl)cyclohexane-trans-1,4-diamine]
pIC50 (PIM-1 [1]; Table IV): 8.40

CC(C)(O)[C@H]1CC[C@H](Nc2ccc3ncc(-c4cccc(C(F)(F)F)c4)n3n2)CC1 [Compound 8-31]
pIC50 (PIM-1 [1]; Table IV): 9.00
pEC50 (PIM-1 [2]): 7.17
subcutaneous tumor growth (22RV1/PIM-1 xenografts; 22RV1/PIM-1 + compound vs 22RV1/PIM-1 + vehicle): significantly reduced
body weight changes (22RV1/PIM-1 xenografts; 22RV1/PIM-1 xenograft mice): No significant changes in body weight
subcutaneous tumor growth (NIH-3T3/PIM-2 xenografts; NIH-3T3/PIM-2 + compound vs NIH-3T3/PIM-2 + vehicle): significantly inhibited
body weight changes (NIH-3T3/PIM-2 xenografts; NIH-3T3/PIM-2 xenograft mice): No significant changes in body weight
tumor growth inhibition (UM-UC-3 xenograft tumors; [7]): significant tumor growth inhibition
body weight or gross adverse toxicity (UM-UC-3 xenograft tumors; oral dosing 200 mg/kg): no significant changes in body weight or gross adverse toxicity
tumor growth by volume (caliper) and final tumor weight (UM-UC-3 xenograft tumors; oral dosing 200 mg/kg): significantly reduced
tumor growth inhibition (PC-3 xenograft tumors; [7]): significant tumor growth inhibition
body weight or gross adverse toxicity (PC-3 xenograft tumors; oral dosing 200 mg/kg): no significant changes in body weight or gross adverse toxicity
tumor growth by volume (caliper) and final tumor weight (PC-3 xenograft tumors; oral dosing 200 mg/kg): significantly reduced
plasma and tumor tissue levels [3]: above the in vitro proliferation EC50
activity against multiple members of the PI3K family [4]: inhibitory activity
tumor growth inhibition [5]: significant tumor growth inhibition
effect on established xenografts [6]: induced regressions

C[C@]1(O)CC[C@H](Nc2ccc3ncc(-c4cccc(C(F)(F)F)c4)n3n2)CC1 [Compound 8-30, 1-Methyl-4-((3-(3-(trifluoromethyl)phenyl)imidazo[1,2-b]pyridazin-6-yl)amino)-trans-cyclohexanol]
pIC50 (PIM-1 [1]; Table IV): 6.99
pIC50 (hERG): 4.92

CC(C)(O)[C@H]1CC[C@H](Nc2ccn3ncc(-c4cccc(Cl)c4)c3n2)CC1 [Compound 8-63]
pIC50 (hERG): < 4.52

CC(C)(O)[C@H]1CC[C@H](Nc2ccc3ncc(-c4cccc(Cl)c4)n3n2)CC1 [Compound 8-37]
pIC50 (PIM-1 [1]; Table IV): 8.40
pIC50 (hERG): < 4.52

CC(C)(O)[C@H]1CC[C@H](Nc2ccn3ncc(-c4cccc(C(F)(F)F)c4)c3n2)CC1 [Compound 8-56]
pIC50 (hERG): < 4.52

CC(C)(N)[C@H]1CC[C@H](Nc2ccc3ncc(-c4cccc(Cl)c4)n3n2)CC1 [Compound 8-79, N-(trans-4-(2-aminopropan-2-yl)cyclohexyl)-3-(3-chlorophenyl)imidazo[1,2-b]pyridazin-6-amine]
pIC50 (PIM-1 [1]; Table IV): 8.70

C[C@]1(O)CC[C@H](Nc2ccc3ncc(-c4cccc(Cl)c4)n3n2)CC1 [Compound 8-36, 4-((3-(3-Chlorophenyl)imidazo[1,2-b]pyridazin-6-yl)amino)-1-methyl-trans-cyclohexano]
pIC50 (PIM-1 [1]; Table IV): 6.84

C[C@]1(O)CC[C@H](Nc2ccc3nnc(-c4cccc(C(F)(F)F)c4)n3c2)CC1 [Compound 8-108, 1-Methyl-4-((3-(3-(trifluoromethyl)phenyl)-[1,2,4]triazolo[4,3-a]pyridin-6-yl)amino)-trans-cyclohexanol]
pIC50 (PIM-1 [1]; Table V): 7.15
